Measurements: patent publication US20050148518A1, “Anti-bacterial compositions” (Rowett Research Institute, priority 2002, published 2005)

Experiments:
[1] = system: S. aureus; assay: Growth inhibition monitored by spectrophotometer (650 nm); format: cell-based, Staphylococcus aureus; conditions: Coumarin 1.25 mM, L-lactate 5 mM
[2] = system: E. coli O157:H7 strain NCTC 12900; assay: as above; format: cell-based, Escherichia coli O157:H7; conditions: 37° C.; for growth compared to the control (FIG. 13B): 0.625 mM Coumarin, 18 mM L-lactate; for growth compared to the control (FIG. 13A): 12.5 mM L-lactate, 1.25 mM esculetin
[3] = system: E. coli O157:H7 strain NCTC 12900; format: cell-based, Escherichia coli O157:H7; conditions: for effect on viability of single compounds (FIG. 6A-C): L-lactate 50 mM or coumarin 7.5 mM alone; for dose dependence of inactivation (FIG. 1): L-lactate 50-200 mM, D-lactate 100-200 mM; for effect on viability of single compounds (FIG. 7A): citrate 50 mM or esculetin 7.5 mM alone
[4] = system: Listeria monocytogenes NCTC 11994; assay: Viability (killing) of L. monocytogenes treated with L-lactate and Coumarin; format: cell-based
[5] = system: methicillin-resistant Staphylococcus aureus (MRSA) strain NCTC 10442; assay: Viability (killing) of MRSA treated with L-lactate and Coumarin; format: cell-based
[6] = system: 8 E. coli O157:H7 strains and 8 non-O157:H7 E. coli strains; format: cell-based
[7] = system: L. monocytogenes; assay: Growth inhibition monitored by spectrophotometer (650 nm); format: cell-based, Listeria monocytogenes; conditions: 1.25 mM Coumarin; L-lactate concentration not given
[8] = system: S. enteritidis; assay: as above; format: cell-based, Salmonella enteritidis; conditions: Coumarin 2 mM; L-lactate concentration not given
[9] = system: Salmonella enteritidis NCTC 4444; assay: Viability (killing) of S. enteritidis treated with L-lactate and Coumarin; format: cell-based

O=c1ccc2ccccc2o1 [Coumarin, 1,2 benzopyrone]
growth (FIG. 13E) [1]: inhibited
growth compared to the control (FIG. 13B) [2]: only slightly reduced the extent of growth
effect on viability (FIG. 11A) ([3]; Coumarin 6.8 mM alone): had no effect on the viability
effect on viability of single compounds (FIG. 6A-C) ([3]; 37° C., pH 3.8): neither 7.5 mM Coumarin (FIG. 6B) nor 7.5 mM umbelliferone (FIG. 6C) affected viability
effect on viability (FIG. 11C) ([4]; Coumarin 6.8 mM alone): had no effect on the viability
effect on viability (FIG. 8B) ([4]; Coumarin 10 mM alone, pH 3.8): had no effect on viability
effect on viability (FIG. 11D) ([5]; Coumarin 6.8 mM alone): had no effect on the viability
survival (FIG. 10) [6]: had little effect on the survival
growth (FIG. 13D) [7]: did not affect the growth of L. monocytogenes
growth (FIG. 13C) [8]: inhibited the growth of S. enteritidis slightly
effect on viability (FIG. 11B) ([9]; Coumarin 6.8 mM alone): had no effect on the viability
effect on viability (FIG. 8A) ([9]; Coumarin 10 mM alone, pH 3.8): did not affect the viability

C[C@@H](O)C(=O)O [D-lactate, reference compound]
dose dependence of inactivation (FIG. 1) ([3]; pH 3.8, 37° C.): dose-dependent

O=C(O)c1ccccc1 [benzoate]
reduction in numbers / viability (FIG. 7A, 7B) ([3]; citrate 50 mM, benzoate 25 mM, esculetin 7.5 mM, 8 hours, pH 3.8): approximately 4 log10 units

O=C(O)CC(O)(CC(=O)O)C(=O)O [citrate]
effect on viability of single compounds (FIG. 7A) ([3]; pH 3.8): neither citrate (50 mM) nor esculetin (7.5 mM) when used individually affected the viability

O=c1ccc2cc(O)c(O)cc2o1 [esculetin]
growth compared to the control (FIG. 13A) [2]: caused a small reduction in the growth
effect on viability of single compounds (FIG. 7A) ([3]; pH 3.8): neither citrate (50 mM) nor esculetin (7.5 mM) when used individually affected the viability

COc1cc2ccc(=O)oc2cc1O [scopoletin]
effect on viability of single compounds (FIG. 6A-C) ([3]; 37° C., pH 3.8): neither L-lactate (50 mM) nor scopoletin (7.5 mM) on their own affected the viability

O=c1ccc2ccc(O)cc2o1 [umbelliferone]
effect on viability of single compounds (FIG. 6A-C) ([3]; 37° C., pH 3.8): neither 7.5 mM Coumarin (FIG. 6B) nor 7.5 mM umbelliferone (FIG. 6C) affected viability

L-lactate
growth (FIG. 13E) [1]: inhibited
growth compared to the control (FIG. 13B) [2]: inhibited substantially
growth compared to the control (FIG. 13A) [2]: caused a small reduction in the growth
antimicrobial effect, L-lactate versus D-lactate (FIG. 2) ([3]; 100 mM each, pH 3.8, 37° C.): exerted a greater antimicrobial effect than 100 mM D-lactate
effect on viability of single compounds (FIG. 6A-C) ([3]; 37° C., pH 3.8): neither L-lactate (50 mM) nor scopoletin (7.5 mM) on their own affected the viability
decrease in viability (FIG. 11A) ([3]; L-lactate 2%, Coumarin 6.8 mM, 10 minutes): approximately 3 log10 units
effectiveness at reducing numbers, L-lactate versus D-lactate (FIG. 1) ([3]; L-lactate 50, 100, 150 or 200 mM, D-lactate 100, 150 or 200 mM, pH 3.8, 37° C.): more effective at reducing numbers of the E. coli O157:H7 strain NCTC 12900 than D-lactate at all concentrations measured
dose dependence of inactivation (FIG. 1) ([3]; pH 3.8, 37° C.): dose-dependent
reduction in viability (FIG. 8B) ([4]; L-lactate 50 mM alone, 8 hours, pH 3.8): greater than 5 log10 units
reduction in viability (FIG. 8C) ([5]; L-lactate 50 mM, Coumarin 10 mM, 8 hours, pH 3.8): greater than 3 log10 units
reduction in viability (FIG. 11D) ([5]; L-lactate 2%, Coumarin 6.8 mM, 60 minutes): approximately 2 log10 units
inactivation (percentage survival), L-lactate versus D-lactate (FIG. 3) ([6]; pH 3.8): much greater than that of D-lactate for all the E. coli strains tested
growth (FIG. 13D) [7]: inhibited growth slightly
